Test results taken from patent US20220395443A1, “Oral Care Compositions and Methods” (Colgate-Palmolive Company, priority 2021, published 2022).
Read-outs that look alike come from different tables or passages of the source.

Key:
Oral biofilms = assay: Measurement of nitrite in oral biofilms after potassium nitrate challenge; format: cell-based, human; details: treated twice a day for five days with simple solutions; total nitrite after five-minute challenge with 5% potassium nitrate; untreated 0.11
Method: Oral biofilms are grown on hydroxyapatite discs in saliva as discussed in the process detailed in Example 3. Over the course of five days, the biofilms receive treatment twice a day. Specifically, the biofilms receive treatment with samples containing simple solutions of water and 3% (by wt.) potassium nitrate and 5% (by wt.) arginine or a simple solution of water and 3% (by wt.) potassium nitrate alone. Following treatment, there is measurement of total nitrite (mg/L) in the biofilms following a five-minute challenge with 5% potassium nitrate.

[1] = system: Haemophilus parainfluenzae; assay: Growth of nitrate reducing species in optical density assay; format: cell-based; details: for Effect on growth of Haemophilus parainfluenzae (in words): 1.5% KNO3 and 0.75% L-arginine alone or in combination, 26 h; for Optical Density (610 nm): pure culture, 0.75% L-arginine, 0.75% KNO3 (so in the source), or 1.5% KNO3 + 0.75% L-arginine by wt. of solution added, measured every two hours for 26 h, control 1.02
Method: The impact of 1.5% KNO3 and 0.75% L-arginine alone or in combination on the growth of one known nitrate reducing species, Haemophilus parainfluenzae, is studied. Pure cultures of each species are grown in the presence of the compounds. Note, the wt. % of the potassium nitrate and L-arginine is relative to the total weight of the solution added to the culture. The growth is monitored by measuring the optical density at 610 nm every two hours for 26 h.

Rothia dentocariosa = assay: In vitro oral biofilm model, simple solutions: 16S V3-V4 sequencing; format: cell-based
Method: (§1) An in vitro model for oral biofilms is treated with either 3% KNO3 or 1.5% L-arginine alone or in combination as simple solutions. Whole human saliva was used to inoculate sterile hydroxyapatite discs held in a vertical position using a specially designed steel lid as indicated in Kumar et al. (2019). Biofilms in Human Diseases: Treatment and Control Nature, the contents of which are incorporated herein by reference in their entirety.
(§2) Following 6 h of inoculum, biofilms are treated for 2 min with simple solutions, rinsed and returned to fresh, filter-sterilized saliva. Biofilms were treated 2 times per day, with approximately 6 h between treatments for the subsequent 3 days. On the fifth day, biofilms are treated one time in the morning and then harvested approximately 3 h after treatment by sonication. Bacterial pellets are frozen and later subjected to DNA extraction and sequencing of the V3-V4 region of the 16 s ribosomal RNA subunit in order to identify the relative abundance of bacteria present in each sample to the genus level. The final supernatants were also retained, filter-sterilized and tested for total nitrate/nitrite concentrations to determine if any changes in nitrate production could be detected from the biofilm communities.
(§3) For these studies, all solutions were made fresh in dH2O and used within 1 h of being made. Solutions were prepared by weight to contain each of the following: 3% KNO3, 1.5% L-arginine, both by weight of the solution, or no active. Additionally, all solutions contained 1.7% TSPP for additional stabilization. Solution pH values were not adjusted before treatment.
(§4) The composition of the microbiome of each sample is studied to assess the bacterial community shifts induced by treatment with: potassium nitrate alone, L-arginine alone, or potassium nitrate and L-arginine in combination.

[2] = system: Prevotella melaninogenica; assay: as above; format: cell-based; details: simple solutions: 3% KNO3 and/or 1.5% L-arginine; untreated (PBS) 0.31
Method: as §1, §2, §3, §4

[3] = system: Haemophilus parainfluenzae; assay: as above; format: cell-based; details: simple solutions: 3% KNO3 and/or 1.5% L-arginine; untreated (PBS) 0.14
Method: as §1, §2, §3, §4

Veillonella parvula = assay: as above; format: cell-based; details: simple solutions: 3% KNO3 and/or 1.5% L-arginine; untreated (PBS) 4.59
Method: as §1, §2, §3, §4

[4] = system: Neisseria flavescens subflava; assay: as above; format: cell-based; details: simple solutions: 3% KNO3 and/or 1.5% L-arginine; untreated (PBS) 1.23
Method: as §1, §2, §3, §4

salivary biofilms = assay: In vitro oral biofilm model, simple solutions: total NO3/NO2 in supernatant (colorimetric kit); format: cell-based, human; details: for NO3/NO2 (nmole per sample): biofilm supernatant, 2 min treatments twice daily, 5 days, 3% KNO3 and/or 1.5% L-arginine, all with 1.7% TSPP, untreated 5.93; for NO3/NO2 output (in words): repeated treatment with simple solutions
Method: as §1, §2, §3
At the end of the experiment, filter sterilized samples were tested for total NO3/NO2 using a colorimetric nitrate/nitrite assay kit (Sigma). Due to low sample volumes, samples were only tested for total NO3/NO2.

Row | SMILES | Biofilm Nitrite Measurement (Oral biofilms) [mg/L] | Effect on growth of Haemophilus parainfluenzae (in words) [1] | Optical Density (610 nm) [1] | Relative abundance of Rothia dentocariosa (Rothia dentocariosa) | Relative abundance of Prevotella melaninogenica [2] | Relative abundance of Haemophilus parainfluenzae [3] | Relative abundance of Veillonella parvula (Veillonella parvula) | Relative abundance of Neisseria flavescens subflava [4] | NO3/NO2 (nmole per sample) (salivary biofilms) | NO3/NO2 output (in words) (salivary biofilms) | Relative abundance of Rothia dentocariosa (Rothia dentocariosa; simple solutions: 3% KNO3 and/or 1.5% L-arginine, untreated (PBS) 0.02)
1 | O=[N+]([O-])[O-].[K+] [KNO3, potassium nitrate] | 0.8 | no effect on the growth | 0.99 | 0 relative units of abundance | 0.67 relative units of abundance | 0.04 relative units of abundance | 0.78 relative units of abundance | 0.05 relative units of abundance | 6.00 | small increases | –
2 | N=C(N)NCCC[C@H](N)C(=O)O [L-arginine] | – | slightly reduce growth | 0.65 | – | 0.07 relative units of abundance | 0.83 relative units of abundance | 3.28 relative units of abundance | 0.54 relative units of abundance | 6.01 | small increases | 0.02 relative units of abundance
